Measured values: patent publication US6143726A, “Complexes of N'-dimethylaminoacetylpartricin A dimethylaminoethylamide, or the salts thereof, and cholesterol 3-sulphate” (priority 1996, dated 2000)

Legend:
[1] = Precipitation at the site of injection after intramuscular administration and tolerance; type: in vivo
[2] = cited from earlier work
[3] = Acute toxicity test (i.v. administration in mice), LD50 by Probit method; type: in vivo; details: i.v. into tail vein, male mice, 15 days observation
Description: Groups of 5 […] male mice, of 4 weeks of age and weighing 14-18 g, starved overnight before trial, were treated with serial doses of the SPA-S-753-cholesterol sulphate complex (prepared as described in Example 1) and with the not complexed SPA-S-753 for comparison. The two products, dissolved in 5% glucose solution and diluted to the required concentrations, were injected by i.v. route into a tail vein, at a constant volume of 2 ml/kg and over the time of 30-40 seconds. The animals were then kept under observation for 15 days, while changes in behaviour and mortality were recorded.

[4] = Pharmacokinetics test (i.v.): serum and kidney concentrations, microbiological determination; type: in vivo, Sprague-Dawley rats; details: 2 hours after single i.v. dose equivalent to 1.25 mg/kg
Description: Two groups of 5 Sprague-Dawley male rats were treated by i.v. route with a single dose equivalent to 1.25 mg/kg of SPA-S-753-cholesterol sulphate complex and of not complexed SPA-S-753 for comparison, with a method similar to that described above. 2 hours following treatments the animals were killed, and the serum and kidneys were collected according to the ordinary procedures. The antibiotic was determined by the microbiological method on the pooled serums and organ homogenates from the 2 groups, the Saccharomyces cerevisiae growth inhibition zones being measured against those produced by antibiotic standard solutions (PYG-agar medium, incubation of 18 h at 30° C.). The antibiotic concentrations found were as follows: 2.6 μg/ml in serum and 4.0 μg/g in the case of SPA-S-753 alone, and 2.4 μg/ml in serum and 0.8 μg/g in the kidneys in the case of SPA-S-753-cholesterol sulphate complex.

[5] = compared with partricin; cited from earlier work

## N'-dimethylaminoacetylpartricin A dimethylaminoethylamide diaspartate [SPA-S-753]
[1]
  precipitation on intramuscular administration: partial precipitation
[1]; systemic and local, versus uncomplexed SPA-S-753
  tolerance: negative influence on tolerance of the product
[2]
  water-solubility: high water-solubility
[3]
  acute toxicity index, lethal dose in 50% of the animals (LD50): 46 to 64 mg/kg
[4]; organ homogenates
  antibiotic concentration in kidneys: 4.0 µg/g
[4]; pooled serum
  antibiotic concentration in serum: 2.6 µg/mL
[5]
  toxicity: definitely much lower than that of partricin
